Assay [1] concerns the target T1, p53 Y220S mutant DBD (Homo sapiens, UniProt P04637, M133L/N239Y/N268D/V203A/Y220S).
T1 construct: the mutant p53 DBD (residues 94–312) of interest; 6xHis (N, cleaved yes); lipoyl domain of dihydrolipoamide acetyltransferase (Bacillus stearothermophilus) (N, cleaved yes); made in house; host or cells: E. coli C41
Nature of the assay: DSF thermal shift assay, Y220S mutant. In kind it is binding. Conditions: 250 μM compound. How it is done:
(§1) Melting temperatures of the p53 mutants were determined by differential scanning fluorimetry (DSF) using the dye SYPRO Orange (Invitrogen), which quantitatively binds to hydrophobic protein patches that become exposed upon thermal unfolding. Real-time melt analyses were performed using either an Agilent MX3005P (heating rate of 270 K/h excitation/emission filters = 492/610 nm; Tables 2 and 4) or a Corbett Rotor-Gene 6000 real-time qPCR thermocycler (heating rate of 180 K/h, excitation/emission filters = 460/510 nm; Table 3). Tm measurements were performed with 8 μM p53 protein and 5–10 × SYPRO Orange (Life Technologies) in a 25 mM KPi (pH 7.2), 150 mM NaCl, and 1 mM TCEP assay buffer. For measurements of compound-induced Tm shifts (ΔTm), the assay buffer additionally contained 5% DMSO (v/v), with either 250 μM ligand or no ligand (control). ΔTm values were calculated as ΔTm = Tm (protein + compound) – Tm (protein). Native melting curves were measured in quadruplicate and compound-induced thermal shifts in triplicate or higher. Mean values ± SEM are given.

Assay [2] deals with T2, p53 Y220C mutant DBD (Homo sapiens, UniProt P04637, M133L/N239Y/N268D/V203A/Y220C).
T2 construct: the mutant p53 DBD (residues 94–312) of interest; 6xHis (N, cleaved yes); lipoyl domain of dihydrolipoamide acetyltransferase (Bacillus stearothermophilus) (N, cleaved yes); made in house; host or cells: E. coli C41
The experiment in a line: DSF thermal shift assay, Y220C mutant. Format: binding. Conditions: 250 μM compound. How it is done: as §1

In assay [3] the target is T2, p53 Y220C mutant DBD. Conditions: ITC, cited from earlier work. (Isothermal titration calorimetry measures the heat released or taken up as one component is titrated into another.)
Assay [4] addresses T3, p53 DBD WT (stabilized M133L/V203A/N239Y/N268D) (Homo sapiens, UniProt P04637, M133L/N239Y/N268D/V203A).
T3 construct: the mutant p53 DBD (residues 94–312) of interest; 6xHis (N, cleaved yes); lipoyl domain of dihydrolipoamide acetyltransferase (Bacillus stearothermophilus) (N, cleaved yes); made in house; host or cells: E. coli C41
Nature of the assay: DSF thermal shift assay, WT (stabilized quadruple mutant DBD). Format: binding. Particulars: 250 μM compound, Agilent MX3005P, 270 K/h, triplicate, mean ± SEM (Table 4). How it is done: as §1

Assay [5] has as its target T4, p53 Y220N mutant DBD (Homo sapiens, UniProt P04637, M133L/N239Y/N268D/V203A/Y220N).
T4 construct: the mutant p53 DBD (residues 94–312) of interest; 6xHis (N, cleaved yes); lipoyl domain of dihydrolipoamide acetyltransferase (Bacillus stearothermophilus) (N, cleaved yes); made in house; host or cells: E. coli C41
Nature of the assay: DSF thermal shift assay, Y220N mutant. In kind it is binding. Particulars: 250 μM compound, Agilent MX3005P, 270 K/h, triplicate, mean ± SEM (Table 4). How it is done: as §1

The target in assay [6] is T5, p53 Y220H mutant DBD (Homo sapiens, UniProt P04637, M133L/N239Y/N268D/V203A/Y220H).
T5 construct: the mutant p53 DBD (residues 94–312) of interest; 6xHis (N, cleaved yes); lipoyl domain of dihydrolipoamide acetyltransferase (Bacillus stearothermophilus) (N, cleaved yes); made in house; host or cells: E. coli C41
The experiment in a line: DSF thermal shift assay, Y220H mutant. Conditions: 250 μM compound, Agilent MX3005P, 270 K/h, triplicate, mean ± SEM (Table 4). In kind it is binding. How it is done:
as §1

Assay [7] concerns the target T1, p53 Y220S mutant DBD. The experiment in a line: Isothermal titration calorimetry, Y220S mutant. Particulars: for Kd: ITC, 20 °C, 25 mM KPi pH 7.2, 5% DMSO. In kind it is binding. How it is done: (§2) Isothermal titration calorimetry (ITC) experiments for the Y220C and Y220S mutants were performed using a MicroCal (Amherst) iTC200 calorimeter as described.[14] Briefly, the cell unit contained 30–50 μM protein in a 25 mM KPi (pH 7.2), 150 mM NaCl, 1 mM TCEP, and 5% (v/v) DMSO assay buffer. The syringe contained 0.5–2 mM compound in the same buffer, using injection steps of 2 μL at a rate of 0.5 μL/s (initial injection: 0.5 μL) and 120 s spacing. […] Data analysis was performed using the MicroCal Origin software. ITC measurements for the Y220N mutant were carried out with the same buffers as above but using a Nano ITC microcalorimeter (TA Instruments) and injection steps of 8 μL, at a rate of 0.5 μL/s, and 200 s spacing. Data were processed using the NanoAnalyze software (Version 3.5.0) supplied with the instrument. All measurements were performed at 20 °C.

Assay [8] addresses T4, p53 Y220N mutant DBD. The experiment in a line: Isothermal titration calorimetry, Y220N mutant. In kind it is binding. Conditions: ITC, Nano ITC, 20 °C. How it is done: as §2
Where [9] appears, read: 8 μM protein, 5% DMSO, Rotor-Gene 6000, 180 K/h, quadruplicate, mean ± SEM (Table 3), read-out: Y220S mutant ΔTm.
[10] abbreviates: 8 μM protein, 5% DMSO, Rotor-Gene 6000, 180 K/h, quadruplicate, mean ± SEM (Table 3), read-out: Y220C mutant ΔTm.
The mark [11] stands for this setting: Agilent MX3005P, 270 K/h, triplicate, mean ± SEM (Table 4), read-out: ΔTm Y220S.
Where [12] appears, read: Agilent MX3005P, 270 K/h, triplicate, mean ± SEM (Table 4), read-out: ΔTm Y220C.

Like-named read-outs stand apart in the source and are kept apart here.

The text below walks through data of article PMC7307883, “Targeting Cavity-Creating p53 Cancer Mutations with Small-Molecule Stabilizers: the Y220X Paradigm” (ACS Chemical Biology, 2020).

As usually defined, the ΔTm is the shift of the melting midpoint relative to a reference. In general, Kd refers to the free concentration of one partner at which half of the binding sites on the other are occupied at equilibrium, for simple one-to-one binding.

`CCn1c2ccc(CNC)cc2c2ccc(Br)cc21` [PK9284]: the values for the ΔTm at 250 µM in assay [1] (setting [9]) and in assay [2] (setting [10]) were 1.8 ± 0.1 °C and 2.4 ± 0.1 °C, respectively. In addition, in assay [3] (ref 17 (Bauer et al.)), the Kd is 14 ± 2 µM.
`CCn1c2ccccc2c2cc(CNC)ccc21` [PK083]: the ΔTm at 250 µM amounted to 0.7 ± 0.1 °C in assay [1] (setting [9]) and 1 ± 0.1 °C in assay [2] (setting [10]).
The corresponding values for `CCn1c2ccc(CNC)cc2c2ccc(-c3cnoc3)cc21` [PK9424] are 1.2 ± 0.1 °C and 2.3 ± 0.1 °C.
`CCn1c2ccc(CNC)cc2c2ccc(-c3ccco3)cc21` [PK9320]: the results for the ΔTm at 250 µM in assay [1] (setting [9]) and in assay [2] (setting [10]) were 1.8 ± 0.1 °C and 3.4 °C, respectively. The Kd in assay [3] (ref 17 (Bauer et al.)) is 4.1 ± 0.2 µM.
Consider `CCOc1ccc2c3cc(CNC)ccc3n(CC)c2c1` [PK9295], for which the thermal shift (ΔTm) at 250 µM in assay [1] (setting [9]) is 0.9 °C; in assay [2] (setting [10]), 1.2 ± 0.1 °C. For the same compound, in assay [3] (ref 17 (Bauer et al.)), the Kd is 62 ± 7 µM.
In the case of `CCn1c2ccc(CNC)cc2c2ccc(-c3nccs3)cc21` [PK9322], the ΔTm at 250 µM in assay [1] (setting [9]) amounted to 3 °C; in assay [2] (setting [10]) it was 3.4 °C. For the same compound, the dissociation constant Kd in assay [3] (ref 17 (Bauer et al.)) is 8.3 ± 2.6 µM.
Regarding `CCn1c2ccc(CNC)cc2c2ccc(-c3ccc(C)s3)cc21` [PK9327], the values for the thermal shift (ΔTm) at 250 µM in assay [1] (setting [9]) and in assay [2] (setting [10]) were 1.2 °C and 3.7 ± 0.2 °C, respectively.
For `CCn1c2ccc(CNC)cc2c2ccc(-c3cc(C)cs3)cc21` [PK9328] the same measures were 1.5 ± 0.1 °C and 3.7 °C.
Regarding `CCn1c2ccc(CN(C)C)cc2c2ccc(Br)cc21` [PK9285], the ΔTm at 250 µM was 2.1 ± 0.1 °C in assay [1] (setting [11]); 2 °C in assay [2] (setting [12]); -0.2 ± 0.1 °C in assay [4]; 1.4 ± 0.1 °C in assay [5]; 0.2 °C in assay [6].
For `CCn1c2ccc(CNC)cc2c2ccc(-c3ccoc3)cc21` [PK9321] the same measures were 2.1 ± 0.1 °C, 3.1 ± 0.1 °C, 0.2 ± 0.1 °C, 1.4 ± 0.1 °C and 0.7 ± 0.1 °C.
Turning to `CNCc1ccc2c(c1)c1ccccc1n2CC(F)(F)F` [PK9255], the shift in melting temperature (ΔTm) at 250 µM in assay [1] (setting [9]) stood at 3.2 °C; in assay [1] (setting [11]), 3.2 °C; in assay [2] (setting [10]), 1.7 ± 0.1 °C; in assay [2] (setting [12]) it was 1.7 ± 0.1 °C; in assay [4], 0 °C; in assay [5], 1.4 ± 0.1 °C. In assay [6], the ΔTm at 250 µM is 0.2 ± 0.1 °C. In addition, the “ΔTm Y220H” value in assay [6] is given as “no significant stabilizing effect”. Moreover, the results for the Kd in assay [7], in assay [8] and in assay [3] (ref 14 (Bauer et al.)) were 16 ± 2 µM, 40 µM and 28 µM, respectively. Further, the “Tighter binding to Y220S than to Y220C (ratio of Kd)” value in assay [7] (Kd 16 μM (Y220S) vs 28 μM (Y220C)) was “about 2 times”.
`CNCc1ccc2c(c1)c1ccc(Br)cc1n2CC(F)(F)F` [PK9301, 1-(7-Bromo-9-(2,2,2-trifluoroethyl)-9H-carbazol-3-yl)-N-methylmethanamine]: the ΔTm at 250 µM in assay [1] (setting [9]) is above 5 °C; in assay [2] (setting [10]), 3.5 ± 0.1 °C. In assay [7], this compound showed a Kd of 4 ± 1 µM.
For the compound `CCn1c2ccc(CNC)cc2c2ccc(-c3cccs3)cc21` [PK9318], the results for the ΔTm at 250 µM in assay [1] (setting [9]) and in assay [2] (setting [10]) were 2.1 °C and 4.4 ± 0.1 °C, respectively. For the same compound, the Kd in assay [3] (ref 17 (Bauer et al.)) is 2.6 ± 0.4 µM.
As to `CCn1c2ccc(CNC)cc2c2ccc(-c3cscn3)cc21` [PK9323], the shift in melting temperature (ΔTm) at 250 µM in assay [1] (setting [9]) is 3.7 ± 0.3 °C; in assay [1] (setting [11]), 3.7 ± 0.3 °C; in assay [2] (setting [10]), 3.1 ± 0.1 °C; in assay [2] (setting [12]), 3.1 ± 0.1 °C; in assay [4], -0.4 ± 0.2 °C; in assay [5] it was 0.7 ± 0.1 °C. In addition, the ΔTm at 250 µM in assay [6] was -0.3 ± 0.1 °C. In addition, the Kd was 5.9 ± 1.3 µM in assay [7] and 5.3 ± 1.4 µM in assay [3] (ref 17 (Bauer et al.)).
As for `CCn1c2ccc(CNC)cc2c2ccc(-c3sccc3C)cc21` [PK9331], the ΔTm at 250 µM was found to be 1.1 ± 0.1 °C in assay [1] (setting [9]) and 2.1 ± 0.1 °C in assay [2] (setting [10]).
